Measured values published in the OPERA property sets (Mansouri et al. 2018).

Compound | logP
CCCCNC(=O)c1ccc2cc(O)c(O)cc2c1 | 2.72
O=C(C=Cc1ccc(O)c(O)c1)CCCCCO | 1.67
COc1ccc(CCNC(=O)C=Cc2ccc(O)c(O)c2)cc1OC | 2.07
COc1ccc(CNC(=O)C=Cc2ccc(O)c(O)c2)cc1OC | 1.99
CCc1ccc2cc(O)c(O)cc2c1 | 3.25
CCCCC=Cc1ccc(O)c(O)c1 | 3.82
COc1ccc(NC(=O)C=Cc2ccc(O)c(O)c2)cc1OC | 2.3
CCCCOC(=O)/C=C/c1ccc(O)c(O)c1 | 3.53
CCCCCCNC(=O)c1ccc(O)c(O)c1 | 2.71
CCCCCCNC(=O)C=Cc1ccc(O)c(O)c1 | 3.37
CCCCCC(O)c1ccc(O)c(O)c1 (stereo unspecified) | 2.32
O=C(C=Cc1ccc(O)c(O)c1)NCCc1ccccc1 | 2.72
CCCCc1ccc(O)c(O)c1 | 2.96
CCCC(=O)C=Cc1ccc(O)c(O)c1 | 2.61
CCOc1ccc2cc(O)c(O)cc2c1 | 2.7
O=C(C=Cc1ccc(O)c(O)c1)NCc1ccccc1 | 2.48
